Assay results as given in PMC7614683, “A small molecule PI3Kα activator for cardioprotection and neuroregeneration” (Nature, 2023).
Where “and” joins values, the source holds several entries; their conditions need not be identical. Equal values may be shown once.

What was measured:
PI3Kα = target: T1, PI3Kα (Homo sapiens, UniProt P42336); test: FRET membrane binding assay; assay type: biochemical; settings: compared with pY
T1 construct: Full-length human p110α was expressed either in a complex with full-length human p85α (for HTS, biochemistry and HDX-MS); 6xHis tag followed by TEV protease site (N); host or cells: Spodoptera frugiperda Sf9, baculovirus
T1 sequence (P42336 whole entry): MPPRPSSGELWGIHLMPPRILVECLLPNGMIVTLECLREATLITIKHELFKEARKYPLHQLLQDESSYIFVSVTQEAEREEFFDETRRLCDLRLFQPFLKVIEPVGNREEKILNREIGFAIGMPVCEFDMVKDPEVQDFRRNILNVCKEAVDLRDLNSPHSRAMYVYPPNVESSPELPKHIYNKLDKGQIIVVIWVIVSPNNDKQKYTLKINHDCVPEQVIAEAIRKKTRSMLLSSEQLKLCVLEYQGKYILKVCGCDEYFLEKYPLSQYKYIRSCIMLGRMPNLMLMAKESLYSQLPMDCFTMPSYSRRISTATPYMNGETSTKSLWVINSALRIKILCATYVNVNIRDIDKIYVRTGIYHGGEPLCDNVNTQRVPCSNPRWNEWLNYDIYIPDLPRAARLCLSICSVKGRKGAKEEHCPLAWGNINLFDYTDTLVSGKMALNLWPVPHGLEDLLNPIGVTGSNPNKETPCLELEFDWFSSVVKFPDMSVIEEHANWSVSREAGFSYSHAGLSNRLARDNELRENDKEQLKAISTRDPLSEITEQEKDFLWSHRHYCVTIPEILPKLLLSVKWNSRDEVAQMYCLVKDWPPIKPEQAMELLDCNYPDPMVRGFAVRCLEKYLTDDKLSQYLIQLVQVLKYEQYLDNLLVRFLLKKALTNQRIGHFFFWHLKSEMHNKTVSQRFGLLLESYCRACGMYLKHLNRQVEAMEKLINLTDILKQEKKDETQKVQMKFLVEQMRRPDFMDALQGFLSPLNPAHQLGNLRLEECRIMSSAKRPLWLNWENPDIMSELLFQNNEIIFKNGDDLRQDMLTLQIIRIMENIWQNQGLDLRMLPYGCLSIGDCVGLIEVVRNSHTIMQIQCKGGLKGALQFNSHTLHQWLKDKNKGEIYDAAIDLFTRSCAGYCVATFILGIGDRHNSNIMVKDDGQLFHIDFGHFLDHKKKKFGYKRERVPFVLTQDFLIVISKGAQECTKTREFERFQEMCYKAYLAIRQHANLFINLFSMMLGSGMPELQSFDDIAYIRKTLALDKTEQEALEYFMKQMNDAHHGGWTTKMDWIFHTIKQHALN
T1 sequence (P27986 whole entry partner): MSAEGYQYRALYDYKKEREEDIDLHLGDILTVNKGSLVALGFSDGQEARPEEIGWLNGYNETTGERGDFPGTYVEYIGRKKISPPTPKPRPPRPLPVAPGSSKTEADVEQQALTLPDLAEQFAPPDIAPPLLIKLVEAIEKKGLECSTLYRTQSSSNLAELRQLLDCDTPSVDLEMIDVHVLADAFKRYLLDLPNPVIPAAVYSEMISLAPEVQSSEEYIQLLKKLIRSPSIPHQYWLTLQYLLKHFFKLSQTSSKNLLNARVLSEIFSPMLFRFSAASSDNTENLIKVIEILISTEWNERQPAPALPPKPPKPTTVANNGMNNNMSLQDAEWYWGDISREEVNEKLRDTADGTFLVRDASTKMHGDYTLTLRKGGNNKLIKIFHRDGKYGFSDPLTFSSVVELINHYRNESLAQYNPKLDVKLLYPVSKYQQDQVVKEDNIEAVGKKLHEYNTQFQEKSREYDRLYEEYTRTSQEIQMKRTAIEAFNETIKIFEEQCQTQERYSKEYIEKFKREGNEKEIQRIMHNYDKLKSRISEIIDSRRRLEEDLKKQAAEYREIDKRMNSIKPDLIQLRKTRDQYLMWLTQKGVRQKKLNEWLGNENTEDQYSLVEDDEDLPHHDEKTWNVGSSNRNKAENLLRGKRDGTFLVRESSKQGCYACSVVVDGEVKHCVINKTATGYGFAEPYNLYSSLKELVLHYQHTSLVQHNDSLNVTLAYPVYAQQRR
Method: Membrane binding assays were performed as previously published. Briefly, liposomes were prepared with 5% (w/v) brain PtdIns(4,5)P2, 20% brain phosphatidylserine, 35% brain phosphatidylethanolamine, 15% brain phosphatidylcholine, 10% cholesterol, 5% sphingomyelin, and 10% dansyl-phosphatidylserine (Avanti Polar Lipids). PI3Kα was used at a final concentration of 0.5 μM. Protein solutions were preincubated with 10 μM pY or compounds for 10 min before addition of liposomes. Liposomes were used at a final concentration of 50 μg/ml. The reaction mixture contained 5 μl enzyme, 2 μl compound and 3 μl liposomes, all diluted in 30 mM HEPES, 50 mM NaCl, pH 7.4. The reaction was allowed to proceed for 10 min at room temperature with 384 black-polystyrene plates (Corning #3544) on an orbital shaker at 200 rpm. FRET signals were measured using PHERAStar (BMG) with a 280 nm excitation filter with 350 nm and 520 nm emission filters to measure Dansyl-PS FRET emissions, respectively. FRET signal shown as I-I0, where I is the intensity at 520 nm, and I0 is the intensity at 520 nm for the solution in the absence of protein.

full length p110α/p85α = target: T2, full length p110α/p85α (Homo sapiens, UniProt P42336); test: Differential scanning fluorimetry; assay type: binding; settings: mean ± SD, n=3; read-out: Kd for PI3Kα by differential scanning fluorimetry
T2 construct: Full-length human p110α was expressed either in a complex with full-length human p85α (for HTS, biochemistry and HDX-MS); 6xHis tag followed by TEV protease site (N); host or cells: Spodoptera frugiperda Sf9, baculovirus
T2 sequence (P42336 whole entry): as the sequence (P42336 whole entry) above
T2 sequence (P27986 whole entry partner): as the sequence (P27986 whole entry partner) above
Method: Thermal denaturation was followed using intrinsic protein fluorescence measured with the NanoTemper Prometheus NT48 instrument (Nanotemper Technologies, München, Germany). Samples in HBS-P (Cytiva) supplemented with 5% (v/v) DMSO containing 3 μM full length p110α/p85α and a 1:2 dilution series of 1938 (from 440 μM to 13.8 nM) were loaded into standard capillaries and heated at 2 °C/min from 15 to 95 °C. The first derivative of the fluorescence emission ratio 350/330 nm were analyzed using the PR.ThermControl v2.3.1 (NanoTemper), to define the Tm. Independent experiments using the same protein and compound stocks were performed in triplicate. Data were fitted using Prism 9.4.1 (GraphPad Software Inc). Dissociation constants were calculated using fits to a single-site ligand depletion model: (2) T=T0+(T1−T0){([CT]+[PT]+[KD])−([CT]+[PT]+KD)^2−4[CT][PT]}/2[PT] where T0 and T1 are the Tm in the absence of titrating compound and at saturation respectively, [PT] and [CT] are the total concentrations of protein and compound respectively and KD is the dissociation constant.

isolated rat hearts = test: Langendorff ex vivo perfused rat heart model of ischaemia reperfusion injury; settings: 1938 5 μM or insulin 1 μM; Fig 5d, single hearts
Method: The Langendorff ex vivo perfused rat heart was used as an experimental model of IRI[79]. The animal experiments were conducted within the terms of the UK Animals (Scientific Procedures) Act 1986, under Project Licence number PPL 70/8556 (Protection of the Ischaemic and Reperfused Myocardium). All procedures conform to the guidelines from Directive 2010/63/EU of the European Parliament on the protection of animals used for scientific purposes. Male Sprague–Dawley rats were bred at a central animal unit in University College London and used at a weight of 250–350 g, and randomly assigned to experimental groups. Rats were anaesthetised by intraperitoneal injection of sodium pentobarbitone (60 mg/kg) (Animalcare, York, UK). […] Analysis of infarct size (IS) as a proportion of area at risk (AAR) was calculated via planimetry using imageJ software (version 1.45, National Institutes of Health, USA).
Alternatively, after 15 min reperfusion, perfusion was stopped and hearts were freeze-clamped in liquid nitrogen and frozen at -80°C. […] Protein content was determined by bicinchoninic acid (BCA) assay (Sigma-Aldrich, Gillingham, UK). […] The next day, membranes were probed with IRDye fluorescence-tagged secondary antibodies (#926-32211 and #926-68020; LI-COR Biosciences, Ltd. UK) and imaged and quantified using the Odyssey imaging system (Image Studio Lite Ver 5.2; LI-COR Biosciences, Cambridge, UK).

CCN1CCN(c2ccc(Nc3cc(Nc4cccc5c4N(C(C)=O)CC5)ccn3)cc2)CC1 [Compound 1938]
PI3Kα binding to lipid membranes (FRET signal), maximum level (PI3Kα): about half of that induced by pY
Kd (full length p110α/p85α): 16 ± 2 µM

insulin: insulin, canonical activator of PI3Kα, used as positive control
Western blot pAkt in langendorff (isolated rat hearts): 3.259 and 3.657
